# Data taken from patent US20090012018A1, “Inhibition of pancretic cancer cell growth” (priority 2004, published 2009).
# Entries after “also recorded” stand apart in the source; their conditions may differ.
# Legend:
# CFPAC-1 = experiment: Sensitivity of pancreatic adenocarcinoma cells to drug treatment (cell proliferation, apoptosis); assay type: cell-based, human; conditions: CFPAC-1 (CFPAC); vs untreated controls; FIG. 3B, 5
# Procedure: (§1) The culture media was changed every 48 hrs.
# (§2) Cells were pulsed with 10 μM BrdU for two hours and then harvested and fixed. BrdU incorporation was detected with a fluorescein isothiocyanate conjugated anti-BrdU antibody (BD Biosciences) and total DNA was stained with 7-AAD (BD Biosciences). FACS analysis was performed according to the BD Biosciences BrdU flow kit manual. Cells in S-phase were defined as the BrdU-positive cell population with a DNA content between 2N and 4N. According to the manual, apoptotic cells were defined as a subpopulation of G0/G1 cells with DNA content lower than the diploid amount (<2N).
# Panc4.21 = experiment: as above; assay type: cell-based, human
# Procedure: (§3) Human pancreatic adenocarcinoma cell lines HPAC, SW1990, Mpanc-96, SU86.86, PL45, Panc10.05 Panc2.03 and Panc8.13 were obtained from ATCC; cell lines MiaPaCa2, Panc1, CFPAC-1, HPAFII, Capan-2, AsPC1, Hs766T and BxPC3 were a gift from Schering Plough; cell lines COLO357, L3.3, L3.6 pl and L3.6 sl were a gift from I. Fidler; cell lines Panc3.27, Panc4.21, Panc5.04, Panc2.13, Panc1.28 and Panc6.03 were a gift from E. Jaffee. BxPC3 and the Panc cell lines were grown in RPMI medium (Gibco) supplemented with 10% FBS, L-glutamine and penicillin/streptomycin; medium for the Panc cells was also supplemented with insulin-transferrin-selenium (Gibco). The CFPAC-1, Panc1, AsPC1, Hs766T, L3.6sl and L3.6pl were grown in DMEM without phenol red (CellGro), supplemented with 10% FBS. Derivation and culture of PDC cells was as described (Schreiber et al., Gastroenterology, 127:250-260, 2004).
# (§4) The small chemical inhibitors were used at the following final concentrations: up to 250 μM for sulindac (Sigma), up to 300 μM for sulindac sulfone (Calbiochem or ICN), NS-398 up to 25 μM (Calbiochem), sodium salicylate up to 100 μM (Calbiochem). […] To test for drug sensitivity, the cells were plated in control medium or in medium containing the drug of interest for 2 to 5 days. The culture media was changed every 48 hrs. The images showing cell morphology were taken with a Nikon inverted microscope.
# as §2
# BxPC3 = experiment: as above; assay type: cell-based, human
# Procedure: as §3, §4, §2
# L3.6sl = experiment: as above; assay type: cell-based, human
# Procedure: as §3, §4, §2
# BxPC3 tumors = experiment: Subcutaneous tumor treatment in nude mice; assay type: in vivo, CD-1 nude mice
# Procedure: (§5) A total of 0.1 ml Hanks' balanced salt solution and matrigel (1:1) containing 2×10^6 cells was injected subcutaneously into CD-1 nude mice (Charles River Laboratories). Tumors were grown for 4 days to a minimum volume of 125 mm^3. Treatment was initiated simultaneously for all subjects. Mice were injected with vector alone (peanut oil: PBS 7:3 v/v) or with a sulindac solution (3 mg/mouse/day) daily for 5 days. Sulindac sulfone was administered orally (1.5 mg/mouse/day). At the end of the treatment period, tumors were excised from mice, weighed and photographed.
# CFPAC-1 tumors = experiment: Subcutaneous tumor treatment in nude mice; assay type: in vivo, CD-1 nude mice; conditions: treated for five days vs controls, sulindac 3 mg/mouse/day injected, sulindac sulfone 1.5 mg/mouse/day orally
# Procedure: as §5
# Tcf1 = experiment: Immunofluorescence of Tcf expression in pancreatic cancer cells; assay type: cell-based, human; conditions: pancreatic cancer cells (Panc4.21); cyclopamine for 24 hrs (FIG. 4C) or sulindac-treated
# Panc2.03 = experiment: Sensitivity of pancreatic adenocarcinoma cells to drug treatment (cell proliferation); assay type: cell-based, human; conditions: reduction in cell proliferation
# Procedure: as §1, §2
# Panc6.03 = experiment: as above; assay type: cell-based, human; conditions: reduction in cell proliferation
# Procedure: as §1, §2
# L3.6pl = experiment: as above; assay type: cell-based, human; conditions: reduction in cell proliferation
# Procedure: as §1, §2
# [1] = test system: Wnt signaling (Top-Flash reporter); experiment: Fop/Top-Flash luciferase reporter assay; assay type: cell-based, human; conditions: CFPAC-1, BxPC3, L3.6sl, Panc4.21, 24 hrs after transfection, sulindac 250 μM, sulindac sulfone 150 μM, cyclopamine 10 μM, or co-transfection
# Procedure: The cell lines were plated the day prior to transfection at a density of 8×10^4 cells/well in a 24-well plate. The luciferase reporter constructs used included: Top-Flash and Fop-Flash containing multimerized Tcf-Lef binding sites or nonfunctional sites, respectively; TK-Luc (Promega); and GliBS containing 8×Gli binding sites upstream of the TK minimal promoter (Sasaki et al., Development, 124:1313-1322, 1997). In different experiments, the reporter constructs were co-transfected with an expression vector containing a dominant-negative form of Lef1 or the endogenous Wnt inhibitor Icat. The dominant negative Lef1 (gift from S. Pleasure) was generated by cloning the 63 amino acid N-terminal deleted form of Lef1 into the pEF5 plasmid. This construct also contains an IRES-EGFP cassette. The cDNA coding for the Icat protein was cloned into pIRES2-EGFP (BD Biosciences Clontech). Transfections were performed using the Effectene transfection reagent […] according to the user's manual. A Renilla luciferase plasmid (Promega) was included to control for transfection efficiency. Transfected cells were cultured in medium containing serum. […] Cells were harvested 24 hrs after transfection, and luciferase activity was assayed using the Dual Luciferase kit (Promega), according to the user's manual.
# For each Fop-luciferase or Top-luciferase experiment, a renilla luciferase construct was included. For each experimental condition (drug treatment, co-transfection or siRNA), triplicate Top- and Fop-luciferase samples were analyzed. To equilibrate the total vector-DNA (or siRNA) amount in all samples, equivalent amounts of an empty expression vector or unrelated siRNAs were transfected into control samples. The following equations were used to obtain the normalized luciferase values and the relative (fold) activation. The firefly luciferase (Fop and Top) values were divided by the renilla luciferase values to obtain the normalized luciferase values. The normalized Top values for each condition were divided by the Fop values of the same condition (e.g., untreated Top/untreated Fop; drug-treated Top/drug-treated Fop). […] To minimize the number of bars in each figure, only representative average Fop values are included in the graphs.
# L3.6sl tumors = experiment: Subcutaneous tumor treatment in nude mice; assay type: in vivo, CD-1 nude mice
# Procedure: as §5
# Individual or combined treatment was initiated after tumors were palpable.
# [2] = reduction in cell proliferation
# [3] = sulindac 3 mg/mouse/day injected daily for 5 days
# [4] = treated for five days vs untreated controls, sulindac 3 mg/mouse/day injected, sulindac sulfone 1.5 mg/mouse/day orally
compound,measurement,setting,value
CC1=C(CC(=O)O)c2cc(F)ccc2/C1=C\c1ccc([S+](C)[O-])cc1 (stereo not drawn) [sulindac],"cell growth (proliferation, apoptosis)",CFPAC-1,not affected; also recorded: only marginally affected
same,induced apoptosis,Panc4.21; concentration dependent,two to four-fold
same,Sulindac Sensitivity,Panc4.21; [2],Positive
same,cell growth,"Panc4.21; vs untreated controls, FIG. 3B",strongly inhibits growth
same,induced apoptosis,BxPC3; concentration dependent,two to four-fold
same,Sulindac Sensitivity,BxPC3; [2],Positive
same,cell growth,"BxPC3; vs untreated controls, FIG. 3B",strongly inhibits growth
same,induced apoptosis,L3.6sl; concentration dependent,two to four-fold
same,Sulindac Sensitivity,L3.6sl; [2],Positive
same,cell growth,"L3.6sl; vs untreated controls, FIG. 3B",strongly inhibits growth
same,reduction in tumor volume compared to untreated samples,BxPC3 tumors; [3],80%
same,tumor growth,BxPC3 tumors; [4],strongly reduced
same,"tumor growth (volume, size)",CFPAC-1 tumors,largely unaffected; also recorded: No reduction
same,Tcf1 expression,Tcf1,reduced
same,Sulindac Sensitivity,Panc2.03,Positive
same,Sulindac Sensitivity,Panc6.03,Positive
same,Sulindac Sensitivity,L3.6pl,Positive
same,Top-Flash reporter activity (Wnt signaling),[1],inhibit Wnt activity; also recorded: inhibited; also recorded: showed an inhibitory effect
same,Top-Flash reporter activity (Wnt signaling),[1]; listed as Sulindac,suppressed Top-Flash reporter activation in all cell lines tested
same,reduction in tumor volume compared to untreated samples,L3.6sl tumors; [3],80%
same,tumor growth,L3.6sl tumors; [4],strongly reduced
